Values after ≈ are worked out from the molar mass of the structure shown.
Experiments:
[1] = system: methicillin resistant S. aureus from Stanford University Hospital (MRSA-SU); assay: MIC assay, broth microdilution, MRSA-SU; format: cell-based; details: for MIC: Staphylococcus aureus, MRSA, 24 h
Description: (2) methicillin resistant S. aureus from Stanford University Hospital Clinical Microbiology/Virology Laboratory (MRSA-SU). […] Such Staphylococci are also resistant to all penicillins, and all cephalosporins, in addition to all β-lactamase inhibitor combinations (including ampicillin/sulbactarn, amoxicillin/clavulanic acid, piperacillin/tazobactam), imipenem, and meropenem; and
(§1) The strains were processed according to procedures recommended by ATCC, or procedures that are routinely used. Single colonies of each organism were picked for purification to generate pure working cultures. Prior to each experiment each strain was subcultured on a fresh Mueller-Hinton agar plate (MHA).
(§2) Inocula for the MIC assays were prepared by transferring a tiny portion of one colony from a MHA plate to 2 ml of Mueller-Hinton broth (MHB) such that the estimated cell density was about 10^7 colony forming unit (CFU)/ml. This cell suspension was then further diluted 10-fold (to 10^6 CFU/ml) by transferring the 2 ml cell suspension to 18 ml of MHB. Addition of 50 μl of this dilute cell suspension to 50 μl of growth medium yielded the desired cell density, namely about 5×10^4 CFU/well, or 5×10^5 CFU/ml.
(§3) The MIC value of oxacillin was determined using the broth microdilution procedure recommended by the National Committee of Clinical Laboratory Standards (NCCLS, 2000).
(§4) The MIC experiments were performed in duplicate in 96-well microtiter plates using MHB. A stock solution of 2.6 mg/0.5 ml was prepared in dimethylsulfoxide (DMSO). A total of 8 two-fold serial dilutions were made with DMSO. Initial oxacillin doses used were (μg/ml): 64, 32, 16, 8, 4, 2, 1, and 0.5. Doses were adjusted in the confirmatory experiment, if needed, in order to establish an actual MIC value.
(§5) To each well of a 96 well microtiter plate was added 47.5 μl of MHB. A volume of 2.5 μl of each dilution of oxacillin was then transferred to appropriate wells containing the medium. All wells, except the sterility control wells, were then inoculated with 50 μl of a diluted cell suspension to give a final volume of 100 μl and a final cell density of 5×10^4 CFU/well. The volume in the sterility control wells was adjusted to 100 μl with MHB. A sterile pipette tip was used to mix the contents of each well (one tip was used going from the low to the high concentration in the same column). The microtiter plates were covered with the lids and were placed in large Stratagene Big Blue plates (Cat. # 400041). Four large kimwipes moistened with tap water were placed near the edges of the Stratagene plates to prevent evaporation of the medium. The microtiter plates were incubated for at least 24 hours at 35° C. The plates were then evaluated for growth in each well. Controls included: medium sterility and negative control (medium and bacteria only).
(§6) The procedure used to determine the antimicrobial activity of the compounds of the present invention was identical to the broth microdilution procedure described above with the exception of the preparation of the stock solutions. Stock solution at concentration of 40.96 mg/0.5 ml was prepared in DMSO for each of the compounds. A total of 8 two-fold dilutions were then made in DMSO. A volume of 2.5 μl of each dilution was delivered to appropriate wells. The initial doses used were (μg/ml): 512, 256, 128, 64, 32, 16, 8, and 4.
(§7) A numerical code was used to evaluate the extent of growth as indicated below. • 0: absence of growth • 1: barely visible (faint) growth • 2: fair growth but less than the negative solvent control • 3: growth is equivalent to the negative solvent control.
(§8) The lowest dose at which no visible growth is observed was determined to be the MIC value.
(§9) MIC assays were performed with oxacillin and the four compounds. Each of the compounds was tested at the following 8 doses (μg/ml): 512, 256, 128, 64, 32, 16, 8, and 4. Oxacillin was tested at the following 8 doses (μg/ml): 64, 32, 16, 8, 4, 2, 1, and 0.5.

[2] = system: methicillin resistant S. aureus ATCC 33591 (MRSA-ATCC); assay: MIC assay, broth microdilution, MRSA-ATCC; format: cell-based; details: for MIC: Staphylococcus aureus, 24 h
Protocol: (1) methicillin resistant S. aureus ATCC 33591 (MRSA-ATCC). This strain was obtained from American Type Culture Collection (ATCC), Manassas, Md.;
as §1, §2, §3, §4, §5, §6, §7, §8, §9

[3] = system: methicillin sensitive S. aureus ATCC 25923 (MSSA); assay: MIC assay, broth microdilution, MSSA; format: cell-based; details: for MIC: Staphylococcus aureus, 24 h
Protocol: (3) methicillin sensitive S. aureus ATCC 25923 (MSSA). This strain was obtained from ATCC and was used as a control.
as §1, §2, §3, §4, §5, §6, §7, §8, §9

TEM-1 β-lactamase [4] = target: T1, TEM-1 β-lactamase (Escherichia coli, UniProt P62593); assay: TEM-1 β-lactamase inhibition assay (nitrocefin hydrolysis, 486 nm); format: biochemical
Protocol: (§10) The inhibition of TEM-1 β-lactamase was determined spectrophotometrically. B-lactamase activity was followed by measuring the hydrolysis of nitrocefin, [3-(2,4-dinitrostyryl)-(6R, 7R)-7-(2-thienylacetamido)-ceph-3-em-4-carboxylic acid, E-isomer], (Calbiochem, San Diego, Calif., USA) at 486 nm. Inhibition assays were performed at 25° C. in 50 mM sodium phosphate, 5% DMSO, pH 7.0. […] Inhibitor was added to the enzyme and incubated for ten minutes before the addition of substrate. Inhibition constants (Ki) for the inhibitors are obtained at the desired temperature and solvent conditions by measuring the rate of substrate hydrolysis at increasing amounts of inhibitors.
The competitive inhibition of β-lactamase was determined spectrophotometrically using a Varian (Walnut Creek, Calif.) Cary 100 UV-Visible spectrophotometer. β-lactamase activity was followed by measuring the hydrolysis of nitrocefin, [3-(2,4-dinitrostyryl)-(6R, 7R)-7-(2-thienylacetamido)-ceph-3-em-4-carboxylic acid, E-isomer], (Calbiochem, San Diego, Calif.) at 486 nm. Inhibition assays were performed at 25° C. in 50 mM sodium phosphate, 5% DMSO, pH 7.0. […] Penicillin G (Sigma, St. Louis, Mo.) was also used as a substrate to determine KM and kcat.
Inhibitor was added to protein and incubated for ten minutes before the addition of substrate. Inhibition constants were determined by measuring the loss of P-lactamase activity with increasing inhibitor concentrations and fitting the data to standard equations for competitive inhibition.
(§11) These methods can also be used to express and assay recombinant TEM-1 variant of β-lactamase.

β-lactamase mutant E104K = β-lactamase mutant E104K (Escherichia coli, UniProt P62593, E102K); format: biochemical; details: number higher than 1 reflects a loss of potency against mutant
Protocol: as §10
(§12) Three of the most important mutations are M69I, R244S and E104K.

β-lactamase mutant M69I = β-lactamase mutant M69I (Escherichia coli, UniProt P62593, M67I); format: biochemical; details: number higher than 1 reflects a loss of potency against mutant
Protocol: as §10, §12

β-lactamase mutant R244S = β-lactamase mutant R244S (Escherichia coli, UniProt P62593, R241S); format: biochemical; details: number higher than 1 reflects a loss of potency against mutant
Protocol: as §10, §12

β-lactamase wt = β-lactamase wt (Escherichia coli, UniProt P62593); assay: Isothermal titration calorimetry, binding enthalpy, wild type
Protocol: (§13) The binding of the compounds of the present invention to β-lactamase was also measured by isothermal titration calorimetry.
(§14) These experiments, in combination with the inhibition assays, indicate that the compounds identified in this disclosure bind to the wild type as well as drug resistant beta lactamases with favorable binding enthalpies. This is a very important characteristic from the point of view of further optimization since it facilitates the achievement of extremely high affinities and low susceptibilities to drug resistant mutations and naturally occurring polymorphisms.
(§15) Isothermal titration calorimetry was performed on a high-precision VP-ITC titration calorimeter (Microcal Inc., Northampton, Mass.). β-Lactamase solutions were titrated with inhibitors in 50 mM sodium phosphate, 2% DMSO, pH 7.0, with β-lactamase concentrations ranging from 15 to 25 μM and inhibitor concentrations ranging from 300 to 1000 μM. The heat evolved from each injection was obtained by integrating the calorimetric signal. Heat of binding was obtained as the difference between the heat of reaction and the heat of inhibitor dilution. Data were analyzed using Origin 7.0 (OriginLab Corporation, Northampton, Mass.).

β-lactamase M69I = β-lactamase M69I (Escherichia coli, UniProt P62593, M67I); assay: Isothermal titration calorimetry, binding enthalpy, M69I mutant
Protocol: as §13, §14, §15

β-lactamase R244S = β-lactamase R244S (Escherichia coli, UniProt P62593, R241S); assay: Isothermal titration calorimetry, binding enthalpy, R244S mutant
Protocol: as §13, §14, §15

β-lactamase E104K = β-lactamase E104K (Escherichia coli, UniProt P62593, E102K); assay: Isothermal titration calorimetry, binding enthalpy, E104K mutant
Protocol: as §13, §14, §15

TEM-1 β-lactamase [5] = target: T1, TEM-1 β-lactamase; assay: Isothermal titration calorimetry, binding to TEM-1 β-lactamase (Example 17); details: ITC
Protocol: as §15, §11
Also shown are the results obtained for β-lactamase variant TEM-1.

[6] = Ki, 25° C., 50 mM sodium phosphate, 5% DMSO, pH 7.0, enzyme 5 nM, nitrocefin 167 μM
[7] = Ki from Lineweaver-Burke Analysis, values in parenthesis, Lineweaver-Burke analysis

Structure (SMILES)	melting point [°C]	Ki (TEM-1 β-lactamase [4]; [6]) [µM]	Loss of potency: ratio of the inhibitory constant between mutant and wild type (Potencywt/Potencymutant), E104K (β-lactamase mutant E104K)	Loss of potency: ratio of the inhibitory constant between mutant and wild type (Potencywt/Potencymutant), M69I (β-lactamase mutant M69I)	Loss of potency: ratio of the inhibitory constant between mutant and wild type (Potencywt/Potencymutant), R244S (β-lactamase mutant R244S)	ΔH wt (β-lactamase wt) [kcal/mol]	ΔH M69I (β-lactamase M69I) [kcal/mol]	Ki (TEM-1 β-lactamase [4]; [7]) [µM]	ΔH R244S (β-lactamase R244S) [kcal/mol]	ΔH E104K (β-lactamase E104K) [kcal/mol]	further results
O=C(Oc1ccccc1[N+](=O)[O-])c1cc(B(O)O)cc([N+](=O)[O-])c1 [Compound F1204]	–	–	–	–	–	–	–	–	–	–	MIC [1]: 512 µg/mL; MIC [2]: 256 µg/mL (≈ 771 µM); MIC [3]: 512 µg/mL (≈ 1540 µM)
O=C(Oc1ccc([N+](=O)[O-])cc1)c1cc(B(O)O)cc([N+](=O)[O-])c1 [Compound (1a), 3-(4-Nitrophenoxycarbonyl)-5-nitrophenylboronic acid]	205 to 207	80 ± 9	0.39	0.43	0.44	–	–	–	–	–	–
COc1ccc(OC(=O)c2cc(B(O)O)cc([N+](=O)[O-])c2)cc1 [Compound (1d), 3-(4-Methoxyphenoxycarbonyl)-5-nitrophenylboronic acid]	67	42 ± 7	0.55	0.60	0.62	–	–	–	–	–	–
O=C(O)c1cccc(B(O)O)c1 [Compound F1203]	–	–	–	–	–	–	–	–	–	–	bacteriotoxicity at high dose ([1]; 512 μl/ml, MRSA-SU): not bacteriotoxic; MIC [1]: > 512 µg/mL; bacteriotoxicity at high dose ([2]; 512 μl/ml, MRSA-ATCC): not bacteriotoxic; MIC [2]: > 512 µg/mL; bacteriotoxicity at high dose ([3]; 512 μl/ml, MSSA): not bacteriotoxic; MIC [3]: > 512 µg/mL
O=C(Oc1ccccc1Cl)c1cc(B(O)O)cc([N+](=O)[O-])c1 [Compound (1j), 3-(2-Chlorophenoxycarbonyl)-5-nitrophenylboronic acid]	–	28 ± 2	0.15	0.33	0.37	-2.145	-1.693	1.31	-6.877	-2.756	–
O=C(Oc1cccc([N+](=O)[O-])c1)c1cc(B(O)O)cc([N+](=O)[O-])c1 [Compound (1c), 3-(3-Nitrophenoxycarbonyl)-5-nitrophenylboronic acid]	185 to 187	39 ± 7	0.56	1.0	0.52	–	–	–	–	–	–
COC(=O)c1cc(B(O)O)cc([N+](=O)[O-])c1 [Compound F1212]	–	–	–	–	–	-4.7	-3.3	–	-8.9	-4.5	Ki (TEM-1 β-lactamase [4]; 25° C., 50 mM sodium phosphate, 5% DMSO, pH 7.0, enzyme 5 nM, nitrocefin 167 μM): 95 µM
N#Cc1ccccc1OC(=O)c1cc(B(O)O)cc([N+](=O)[O-])c1 [Compound (1g), 3-(2-Cyanophenoxycarbonyl)-5-nitrophenylboronic acid]	–	37 ± 3	0.32	0.40	0.26	-5.52	-2.46	1.37	-8.2	-6.397	–
O=C(Oc1c(Cl)cccc1[N+](=O)[O-])c1cc(B(O)O)cc([N+](=O)[O-])c1 [Compound (1h), 3-(2-Chloro-6-nitrophenoxycarbonyl)-5-nitrophenylboronic acid]	–	9.5 ± 0.8	0.77	1.2	0.86	-1.14	-0.953	0.65	-11.931	-1.896	ΔG (TEM-1 β-lactamase [5]): -6.614 kcal/mol; ΔH (TEM-1 β-lactamase [5]): -1.14 kcal/mol; −TΔS (TEM-1 β-lactamase [5]): -5.474 kcal/mol; Ki (TEM-1 β-lactamase [4]; Ki, TEM-1 β-lactamase): 9.5 µM
